Experimental data as given in patent US12600740B2, “Fluorinated N-acetyl glucosamine analogs and xylose derivatives” (UTI Limited Partnership, priority 2018, dated 2026).

Columns and labels:
[1] = tested on: CSPG production by astrocytes; experiment: Western blot of astrocyte conditioned medium, MAB2030 (chondroitin sulfate GAG stubs); assay type: cell-based, mouse; conditions: for effect on CSPG production by astrocytes: astrocyte conditioned media, 50 μM, 48 hours; for Reduce CSPG production: astrocytes, significance class
Text: Astrocytes are major producers of CSPGs following injury in the CNS [Jones, L. L., Margolis, R. U. & Tuszynski, M. H. The chondroitin sulfate proteoglycans neurocan, brevican, phosphacan, and versican are differentially regulated following spinal cord injury. Experimental Neurology 182, 399-411 (2003); Tang, X., Davies, J. E. & Davies, S. J. Changes in distribution, cell associations, and protein expression levels of NG2, neurocan, phosphacan, brevican, versican V2, and tenascin-C during acute to chronic maturation of spinal cord scar tissue. […] The Journal of neuroscience: the official journal of the Society for Neuroscience 20, 2427-2438 (2000); McKeon, R. J., Jurynec, M. J. & Buck, C. R. The chondroitin sulfate proteoglycans neurocan and phosphacan are expressed by reactive astrocytes in the chronic CNS glial scar. The Journal of neuroscience: the official journal of the Society for Neuroscience 19, 10778-10788 (1999); Haas, C. A., Rauch, U., Thon, N., Merten, T. & Deller, T. Entorhinal cortex lesion in adult rats induces the expression of the neuronal chondroitin sulfate proteoglycan neurocan in reactive astrocytes. The Journal of neuroscience: the official journal of the Society for Neuroscience 19, 9953-9963 (1999)] and they may help drive progression of disability in a model of progressive MS [Mayo, L. et al. Regulation of astrocyte activation by glycolipids drives chronic CNS inflammation. Nature medicine 20, 1147-1156 (2014)]. Therefore astrocytes were used as model cells to determine the ability of the sugar analogs to reduce synthesis of CSPGs. Since CSPGs are exported out of cells, the conditioned media from analog-treated astrocytes were probed by Western blots (FIG. 4). We used antibodies to both the stubs of chondroitin sulfate GAGs attached to the core protein (MAB2030) and to intact 4-sulfated chondroitin sulfate sidechains (2H6) (FIG. 4a). Particularly, we used the 2H6 antibody to label intact 4-sulfated chondroitin sulfate sidechains, and the MAB2030 antibody to detect the stubs of chondroitin sulfate GAGs attached to the core protein. […] 1998, 160 (8), 3812-3819. Poole Poole C. A.; Glant T. T.; Schofield J. R.; Chondrons from articular cartilage. (IV). Immunolocalization of proteoglycan epitopes in isolated canine tibial chondrons. J. Histochem. Cytochem. 1991, 39 (9), 1175-1187].
Astrocytes were plated in uncoated 6-well plates (3 replicate wells per treatment) at 1×10^6 cells/well in mixed glial media, and incubated at 5% CO2 and 37° C. Astrocytes were treated with compounds at 50 μM in AIM-V media for 48 hours. Media was pooled from 3 replicate wells in 15 ml 100K cutoff centricon tubes (EMD Millipore, #UFC905008), which were spun on an ultracentrifuge at 5000× g for 2 cycles of 10 minutes each. When harvested, the cell lysate was kept on ice for 5 minutes with 250 μL of RIPA buffer (ThermoFisher Scientific #89900) containing proteinase inhibitor, and then collected and centrifuged at 14000 g for 5 minutes. Total protein was quantified using a Bradford assay. Conditioned media that were to be probed for chondroitin 4-sulfate GAGs (Millipore, #MAB2030) were first digested with 0.2 U/ml chondroitinase ABC for overnight at 37° C. to remove chondroitin sulfate sidechains. Blots that were to be probed with CSA (2H6, Cosmo) or CS56 (Abcam #ab11570) were not exposed to chondroitinase ABC. Samples were heat denatured with NuPAGE® LDS Sample buffer at 70° C. for 10 minutes and then loaded into 3-8% tris-acetate pre-cast gels (ThermoFisher, #EA0478BOX). The gels were electrophoresed at a constant 150 V for 90 minutes and transferred to a […] polyvinylidene fluoride membrane at a constant 250 mA for 60 minutes. The membranes were blocked for one hour with 10% skim milk in Tris-buffered saline (TBS; 0.9% NaCl, 10 mM Tris-HCl, pH 7.5) containing 0.5% Tween 20 (TBS-T). Primary antibodies were added in 3% skim milk and incubated overnight at 4° C. […]

splenocytes = experiment: Splenocyte thymidine proliferation assay (anti-CD3/anti-CD28); assay type: cell-based, mouse; conditions: for Reduce T cell proliferation: activated splenocytes, significance class
Experimental: It was assessed whether the glucosamine analogs have immunomodulatory properties on splenocytes isolated in culture. T cells within the splenocyte pool were polyclonally activated with anti-CD3 and anti-CD28 antibodies in the presence of compounds for 48 hours, and proliferation was determined by the uptake of tritiated thymidine and expressed as counts per minute. The relative change in proliferation of treated versus control splenocytes was taken in order to rank the compounds across multiple independent experiments (FIG. 8a).
The spleens were isolated from 8-10-week-old female C57BL/6 mice and homogenized. The cells were isolated by Ficoll gradient and spun for 30 min at 1,800 r.p.m. The cell suspension was removed and the cells were washed once with PBS. The cell pellet was subsequently re-suspended in Roswell Park Memorial Institute media containing 10% fetal bovine serum, 1% penicillin/streptomycin, 1% sodium pyruvate and 1% L-glutamine. Trypan blue exclusion was used to count live cells, and the cells were plated at 2.5×10^5 cells per well in a round-bottom 96-well plate and activated with 1,000 ng/ml plate-bound anti-CD3 and 1,000 ng/ml anti-CD28 suspended in media to preferentially activate T lymphocytes. Compounds were added at final concentrations of 25 μM. The cells were kept at 37° C. and 5% CO2 for 30 h, after which 10 μl/well (1 μCi per well) of 3H-thymidine was added for 18 h. The cells containing thymidine were harvested onto filter mats using a cell harvester and mats were allowed to dry for 24 h. The results were read by liquid scintillation counts.

SMILES | effect on CSPG production by astrocytes [1] | Reduce T cell proliferation (splenocytes) | Reduce CSPG production [1] | splenocyte proliferation (splenocytes; 25 μM, 48 hours)
CC(=O)N[C@H]1C(O)O[C@H](CO)[C@@H](O)[C@@H]1O (stereo partly drawn) [GlcNAc, N-Acetyl-D-glucosamine, reference compound] | did not affect CSPG production |  |  | 
CO[C@H]1[C@H](F)[C@@H](COC(C)=O)OC(OC(C)=O)[C@@H]1NC(C)=O (stereo partly drawn) [Compound 6, 2-Acetamido-1,6-di-O-acetyl-2,4-dideoxy-4-fluoro-3-O-methyl-α/β-D-glucopyranose] | did not affect CSPG synthesis | n.s. | n.s. | 
CC(=O)O[C@@H]1[C@@H](OC(C)=O)[C@H](OCCS(=O)(=O)[O-])OC[C@H]1OC(C)=O.[Na+] [Compound 22, 2-Sulfoethyl 2,3,4-tri-O-acetyl-β-D-xylopyranoside, sodium salt] | CSPG production was not impacted |  |  | 
CC(=O)OC[C@H]1OC(OC(C)=O)[C@H](NC(=O)C(F)(F)F)[C@@H](OC(C)=O)[C@@H]1F (stereo partly drawn) [Compound 9, 1,3,6-Tri-O-acetyl-2,4-dideoxy-4-fluoro-2-trifluroacetamido-α/β-D-glucopyranose] | did not lower CSPG production in astrocytes | *** (***p < 0.001) | n.s. | reduced splenocyte proliferation
CC(=O)O[C@@H]1OC[C@@H](F)[C@H](OC(C)=O)[C@H]1OC(C)=O [Compound 28, 1,2,3-tri-O-acetyl-4-deoxy-4-fluoro-β-D-xylopyranose] | did not reduce CSPG production |  |  | 
CC(=O)O[C@@H]1[C@@H](OC(C)=O)[C@H](OCCO)OC[C@H]1OC(C)=O [Compound 20, 2-Hydroxyethyl 2,3,4-tri-O-acetyl-β-D-xylopyranoside] | CSPG production was not impacted |  |  | 
CC(=O)O[C@@H]1[C@@H](OC(C)=O)[C@@H](OCCCCCCS(=O)(=O)[O-])OC[C@H]1OC(C)=O.[Na+] [Compound 24, 6-Sulfohexyl 2,3,4-tri-O-acetyl-α-D-xylopyranoside, sodium salt] | did not act as an inhibitor |  |  | 
COC[C@H]1OC(OC(C)=O)[C@H](NC(C)=O)[C@@H](OC)[C@@H]1F (stereo partly drawn) [Compound 5, 2-Acetamido-1-O-acetyl-2,4-dideoxy-4-fluoro-3,6-di-O-methyl-α/β-D-glucopyranose] | did not affect CSPG synthesis | n.s. | n.s. | 
CC(=O)O[C@@H]1[C@@H](OC(C)=O)[C@H](OCCOCCOCCOCCO)OC[C@H]1OC(C)=O [Compound 21, 2-(2-(2-(2-Hydroxyethoxy)ethoxy)ethoxy)ethyl 2,3,4-tri-O-acetyl-β-D-xylopyranoside] | effective at reducing CSPGs |  |  | 
O[C@@H]1[C@@H](O)[C@H](OCc2ccccc2)OC[C@H]1O [Compound 19, reference compound] | CSPG production was not impacted | n.s. | n.s. | 
CC(=O)N[C@H]1C(OC(C)=O)O[C@H](COC(C)=O)[C@H](Cl)[C@@H]1OC(C)=O (stereo partly drawn) [Compound 15, 2-Acetamido-1,3,6-tri-O-acetyl-2,4-dideoxy-4-chloro-α/β-D-galactopyranoside] |  | * (*p < 0.05) | n.s. | 
